Experimental data as given in US11441168B2, “Method for assaying the activity of spermidine/spermine N1-acetyltransferase” (BioMark Technologies Inc., priority 2011, dated 2022).

Key:
[1] = system: rat hepatocytes; details: for Substrate concentration resulting in extensive cytotoxicity / Substrate concentration that resulted in extensive cytotoxicity: rat, 24 h
Procedure: (§1) Refer to the table below for the testing concentrations. Metabolites collected from the incubation reactions were measured by LC/MS/MS analysis.
(§2) Following cell attachment, the culture medium was aspirated from each well, and replaced with pre-warmed InVitroGRO™ HI Rat Medium (added with Torpedo antibiotic mix in the confirmatory experiment) and the substrate solution at the appropriate concentration. The treated cells were returned to incubation for 24 hours. Upon completion of incubation, the medium from each well was collected into 1.7-mL vials containing ice-cold methanol and stored at nominal −80° C. (−72° C. to −88° C.) prior to LC/MS/MS analysis. Hepatocytes remaining in the wells were subjected to MTT assay to evaluate the cytotoxic potential of the substrates at the testing concentrations.
Upon collection of the reaction medium, an aliquot of 0.5 mg/mL MTT in KHB was added immediately to the remaining hepatocytes in each well and then incubated for approximately 30 minutes. Following incubation, the medium was replaced with dimethyl sulfoxide (DMSO) to dissolve the formazan. An aliquot from each well was measured for absorbance at 540 nm on a 96-well flat bottom plate with a microplate reader and DMSO for background absorbance correction.
The cytotoxic potential of the substrates to rat hepatocytes was evaluated by MTT cytotoxicity assays. The assays were performed in both the pilot and the confirmatory experiments.

[2] = target: spermidine/spermine N1-acetyltransferase (SSAT) (Rattus norvegicus, UniProt Q6P9U6); assay: SSAT-mediated N-acetylation enzyme kinetics in plateable cryopreserved primary rat hepatocytes (LC/MS/MS, Lineweaver-Burk); details: for Vmax of N-acetylation by SSAT: confirmatory experiment, primary rat hepatocytes, 24-hour incubation, Lineweaver-Burk estimate
Procedure: as §1
Immediately before use, cryopreserved primary rat hepatocytes were thawed in a water bath at 37° C. and resuspended in pre-warmed InVitroGRO™ CP Rat Medium. […] Hepatocyte concentrations were adjusted by addition with InVitroGRO™ CP Rat Medium to achieve the target plating concentration of 0.70×10^6 cells/m L. Aliquots of hepatocytes were plated (0.5 mL/well) in 24-well CellAffix culture plates and the plates were placed in an incubator maintained at 37° C. with a highly humidified atmosphere of 95% air and 5% […] for 4 hours to allow hepatocyte attachment before dosing with the selective substrate solutions.
as §2
Four LC/MS/MS assays were employed to individually quantitate the four metabolites in the incubation samples.
Enzyme kinetics was evaluated based on the enzymatic conversion of the substrate at a range of testing concentrations into their N-acetylated metabolites over a 24-hour incubation reaction time course. Metabolite formation from different testing substrate concentrations after incubation was measured by LC/MS/MS and the resulting data constructed into Lineweaver-Burk plots of the double reciprocal of reaction velocity against substrate concentrations to estimate the Km and Vmax values of SSAT-mediated N-acetylation of each substrate tested.

[3] = target: SSAT in cytosolic liver fraction of transgenic mice (Mus musculus, UniProt P48026); details: read-out: Km of spermidine acetylation (literature reference); cited from earlier work
Chain of SSAT in cytosolic liver fraction of transgenic mice (P48026 whole entry): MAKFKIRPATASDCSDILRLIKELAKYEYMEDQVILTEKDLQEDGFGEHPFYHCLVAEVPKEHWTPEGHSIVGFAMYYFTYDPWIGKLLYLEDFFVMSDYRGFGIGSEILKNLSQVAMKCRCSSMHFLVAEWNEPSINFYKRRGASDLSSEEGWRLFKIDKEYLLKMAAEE

Chain of spermidine/spermine N1-acetyltransferase (SSAT) (Q6P9U6 1-171): as the sequence (P48026 whole entry) above, with I35V, Q42L counted along it

SMILES | Cytotoxicity to rat hepatocytes (in words) [1] | Substrate concentration resulting in extensive cytotoxicity [1] | Substrate concentration that resulted in extensive cytotoxicity [1] | Vmax of N-acetylation by SSAT [2] [pmol/min/million cells] | Km at 24 h ([2]; rat) [µM] | Km [3] [µM]
NC12CC3CC(CC(C3)C1)C2 [amantadine] | Significant cytotoxicity | approximately 1140 μM | approximately 1170 μM | 0.00197 |  | 
CC(N)C12CC3CC(CC(C3)C1)C2 (centres unmarked) [rimantadine] | Significant cytotoxicity | ~220 µM | ~280 µM | 0.364 | 1840 | 
NCCCCNCCCN [spermidine] | No cytotoxicity |  |  | 7.21 |  | 267 ± 46
Cc1cccc(C)c1NC(=O)C(C)N (centres unmarked) [tocainide] | No cytotoxicity |  |  | 0.617 |  | 
